pIC50: −log10 of the molar value.
How the values were obtained:
Assay type in all cases: cell-based
PDGFR-β = biological target: T1, PDGFR-β (Homo sapiens, UniProt P09619); test: PDGFR-β cellular kinase assay (U1242 cells); settings: Table V, read-out: Estimated IC50 Cellular Kinase Assays PDGFR-β
T1 construct: the human glioblastoma line U1242 that expresses PDGFR-β; endogenous in cells; host or cells: U1242 human glioblastoma cells
Text: (§1) This example illustrates the ability of the exemplary compounds to inhibit receptor tyrosine kinases, such as HER2 and/or EGFR. The following target cells were used for cellular kinaseassays: NIH3T3 clone C7 (Honegger et al., supra) engineered to over-express human EGF receptor; NIH3T3 cells engineered to over-express a chimeric receptor containing the EGFR extracellular domain and the HER2 intracellular kinase domain; the human mammary carcinoma line BT474 (ATCC HTB2) expressing HER2; and the human glioblastoma line U1242 that expresses PDGFR-β. Growth assays were carried out using human mammary epithelial SKBR3 (ATCC HTB30) cells, SKOV3 (ATCC HTB77) human ovarian cancer cell line, A431 cells, MCF7 human breast carcinoma cells, MCF7 cells overexpress the HER2 kinase (MCF7-HER2), NIH3T3 cells, and NIH3T3 cells overexpressing the HER2 kinase (3T3-HER2).

[1] = tested on: NIH3T3 cells overexpressing the HER2 kinase (3T3-HER2); test: 3T3 growth assay, HER2C7 cells (3T3-HER2); settings: Mus musculus, NIH3T3, 96 h, Table VI, 2% FBS, 4 days
Text: as §1
The 3T3 growth assay was carried out as follows:
(1) Dulbecco's Modified Eagle Medium (D-MEM), Gibco 11965-050;
(4) Fetal Bovine Serum Certified, Gibco 16000-028;
(5) Dulbecco's Phosphate-Buffered Saline (D-PBS), Gibco 14190-029;
(6) Sulforhodamine B (SRB), Sigma S-9012. 0.4% SRB in 1% acetic acid;
(7) 10 mM Tris-base, Fisher BP152-5;
(8) 10% TCA, Trichloroacetic acid, Fisher A322-500;
(9) 96-well flat bottom plate (sterile), Corning 08-757-155;
(10) 100 ml reagent reservoir 9 (sterile), Matrix Technologies Corporation, 8086;
(11) Sterile pipet tips, Fisher 21-197-8E;
NIH3T3C7 cells in 10% CS+2 mM GLN DMEM HER2C7 cells in 2% FBS+2 mM GLN DMEM
(1) HER2C7 (engineered to express HER2) and NIH3T3C7 (as the control) cells are used for this assay. NIH3T3C7 cells are seeded at 2500 cells/well, […] in 10% CS+2 mM GLN DMEM, in a 96 well plate; HER2C7 cells are seeded at 6000 cells/well, 100 μl/well in 2% FBS+2 mM GLN DMEM, in a 96 well plate. Cells are incubated at 37° C., 5% CO2 overnight to allow for cell attachment to the plate;
(2) The test compound is added to the cells at day 2. The compounds are prepared in the appropriate growth medium (10% CS+2 mM) GLN DMEM for NIH3T3C7 cells; 2% FBS+2 mM GLN DMEM for HER2C7 cells) in a 96 well plate, and serially diluted. A total of 100 μl/well medium of the diluted compounds is added into the cells. The total volume of each well is 200 μl. Quadruplicates (wells) and 11 concentration points are applied to each compound tested.
(3) After the cells are treated with the compound for 4 days, the cells are washed with PBS and fixed with 200 μl/well ice-cold 10% TCA for one hour at 0-5° C. condition.
(4) Remove TCA and rinse wells 5 times with deionized water. Dry plates upside down with paper towels. Stain cells with 0.4% SRB at 100 μl/well for 10 minutes.
(5) Pour off SRB and rinse plate 5 times with 1% acetic acid. Dry plate completely.
(6) Solubilize the dye with 10 mM Tris-base at 100 μl/well for 10 minutes on a shaker.
(7) Read the plate at dual wavelengths at 570 nm and 630 nm on Dynatech Elisa plate reader.

SKBR3 cells = test: SKBR3 growth assay (sulphorhodamine B); settings: Homo sapiens, SK-BR-3, 96 h; Table V; 4 days, SRB; read-out: Estimated IC50 Growth Assays SKBR3 cells
Text: as §1
SKBR3 cells over-express HER2. A431 cells over-express EGFR. These cells were dispensed into 96-well plates with test compounds. After 4 days the monolayers were TCA-fixed then stained with sulphorhodamine B. The absorbance versus log drug concentration was plotted and IC50 values estimated.
(4) Tris, crystallized free base—Fisher Catalog #BP152 Working solution: 10 mM tris=1.211 gram Trizma base/liter H2O.
(5) Aspirate growth media from 96 well plate containing control cells or cell treated with compounds, rinse wells 2 or 3 times with PBS and layer 200 μl cold 10% TCA onto each well. Fix cells for 60 minutes at 4° C.
(6) Discard TCA and rinse wells 5 times with distilled H2O. Dry plate upside down on paper towel.
(7) Stain fixed cells for 10 minutes with 100 μl 0.4% SRB per well.
(8) Pour off SRB solution and rinse wells 5 times with 1% acetic acid.
(9) Dry plate upside down on paper towel.
(10) After wells are completely dry, solubilize dye with 100 μl 10 mM Tris base per well for 5-10 minutes on titer plate shaker.
(11) Read optical density at dual wavelength mode 570 nm and 630 nm on Dynatech ELISA plate reader, Model MR 5000.

T1 sequence (P09619 33-1106): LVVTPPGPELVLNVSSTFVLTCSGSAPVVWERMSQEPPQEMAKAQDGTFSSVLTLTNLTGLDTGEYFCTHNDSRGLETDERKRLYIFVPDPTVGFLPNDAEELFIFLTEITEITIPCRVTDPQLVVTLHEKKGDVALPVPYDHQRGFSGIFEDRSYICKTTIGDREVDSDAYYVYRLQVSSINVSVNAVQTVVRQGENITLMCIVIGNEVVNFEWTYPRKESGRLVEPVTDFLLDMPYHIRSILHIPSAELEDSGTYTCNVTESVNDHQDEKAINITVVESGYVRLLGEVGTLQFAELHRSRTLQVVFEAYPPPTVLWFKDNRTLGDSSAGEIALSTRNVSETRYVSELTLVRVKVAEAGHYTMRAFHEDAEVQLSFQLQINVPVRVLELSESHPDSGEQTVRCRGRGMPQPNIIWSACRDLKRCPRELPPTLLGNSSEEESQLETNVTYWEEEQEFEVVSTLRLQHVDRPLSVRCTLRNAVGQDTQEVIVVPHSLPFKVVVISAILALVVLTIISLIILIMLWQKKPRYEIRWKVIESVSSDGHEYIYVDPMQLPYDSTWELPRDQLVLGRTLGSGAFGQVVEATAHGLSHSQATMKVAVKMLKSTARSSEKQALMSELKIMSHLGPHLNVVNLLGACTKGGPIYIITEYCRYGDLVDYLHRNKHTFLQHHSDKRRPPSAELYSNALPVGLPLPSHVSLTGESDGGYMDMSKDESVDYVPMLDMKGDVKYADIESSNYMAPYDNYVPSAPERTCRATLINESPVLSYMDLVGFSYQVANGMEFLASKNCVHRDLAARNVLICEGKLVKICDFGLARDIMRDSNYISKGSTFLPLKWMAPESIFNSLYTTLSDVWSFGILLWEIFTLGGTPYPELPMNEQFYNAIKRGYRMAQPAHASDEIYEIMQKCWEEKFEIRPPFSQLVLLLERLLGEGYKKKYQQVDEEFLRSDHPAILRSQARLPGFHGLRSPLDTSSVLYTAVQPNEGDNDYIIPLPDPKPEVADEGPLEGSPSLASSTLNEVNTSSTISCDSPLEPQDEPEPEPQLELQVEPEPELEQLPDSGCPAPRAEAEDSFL

pIC50 (PDGFR-β) | pIC50 (SKBR3 cells) | SMILES | pIC50 [1]
< 4.00 | 5.40 | CC(C)(C)c1cc(/C=C(\C#N)C(N)=S)cc(C(C)(C)C)c1O [Compound M11] | 4.52
4.22 | 4.60 | N#C/C(=C\c1ccc(O)c(O)c1)C(=S)NCc1ccccc1 [Compound M13] | –
– | 4.70 | N#C/C(=C\c1ccc(O)c(O)c1)C(=O)Nc1cccc(C(F)(F)F)c1 [Compound M15] | –
4.46 | 5.05 | N#C/C(=C\c1cc(O)c(O)c(I)c1)C(=O)NCCCc1ccccc1 [Compound M16] | –
– | – | CC(C)(C)c1cc(/C=C(\C#N)C(=O)NCCCc2ccccc2)cc(C(C)(C)C)c1O [Compound M20, (E)-3-(3,5-di-t-Butyl-4-hydroxyphenyl)-2-[(3-phenyl-n-propyl)aminocarbonyl]acrylonitrile] | 5.40
– | – | CC(C)c1cc(/C=C(\C#N)C(=O)NCCCc2ccccc2)cc(C(C)C)c1O [Compound M21, (E)-3-(3,5-Diisopropyl-4-hydroxyphenyl)-2-[(3-phenyl-n-propyl)aminocarbonyl]acrylonitrile] | 4.15
– | – | CC(C)c1cc(/C=C(\C#N)S(=O)(=O)c2ccccn2)cc(C(C)C)c1O [Compound M26] | < 4.00
– | – | CC(C)c1cc(/C=C(\C#N)S(=O)(=O)CC#N)cc(C(C)C)c1O [Compound M27] | 4.30
– | – | CC(C)c1cc(/C=C(\C#N)S(=O)(=O)/C(C#N)=C/c2cc(C(C)C)c(O)c(C(C)C)c2)cc(C(C)C)c1O [Compound M29] | 4.82
– | – | CC(C)c1cc(/C=C(\C#N)S(=O)(=O)c2ccccc2)cc(C(C)C)c1O [Compound M30] | 4.92
– | – | Cc1cc(/C=C(\C#N)S(=O)(=O)c2ccccc2)cc(C)c1O [Compound M31] | < 4.00
– | – | Cc1cc(/C=C(\C#N)S(=O)(=O)c2ccccn2)cc(C)c1O [Compound M32] | 4.10
– | – | CC(C)(C)c1cc(/C=C(\C#N)S(=O)(=O)c2ccccc2)cc(C(C)(C)C)c1O [Compound M33, (E)-3-(3,5-di-t-Butyl-4-hydroxyphenyl)-2-(phenylsulfonyl)acrylonitrile] | 5.05
– | – | CC(C)(C)c1cc(/C=C(\C#N)S(=O)(=O)c2ccccn2)cc(C(C)(C)C)c1O [Compound M34, (E)-3-(3,5-di-t-Butyl-4-hydroxyphenyl)-2-[(pyrid-2-yl)sulfonyl]acrylonitrile] | 5.26
– | – | CC(C)(C)c1cc(/C=C(\C#N)C(=O)Nc2ccc(C(F)(F)F)cc2)cc(C(C)(C)C)c1O [Compound M35, (E)-3-(3,5-di-t-Butyl-4-hydroxyphenyl)-2-[(4-trifluoromethyl)phenylaminocarbonyl]acrylonitrile] | 6.60
